Results reported in patent US10918713B2, “Epitopes from allergen proteins and methods and uses for immune response modulation” (LA JOLLA INSTITUTE FOR ALLERGY AND IMMUNOLOGY, priority 2012, dated 2021).
“And” between values parts separate entries of the source, which are not always exact repeats. Equal values may be shown once.

How the values were obtained:
[1] = system: PBMC from allergic donors; test: Dual ELISPOT, total IL-5 and IFN-γ response (SFC); format: cell-based, human; settings: sum of IFNg and IL-5
Protocol: (§1) Spots were counted by computer-assisted image analysis (Zeiss, KS-ELISPOT reader, Munich, Germany).
(§2) Each assay was performed in triplicate. The level of statistical significance was determined with a Student's t-test using the mean of triplicate values of the response against relevant pools or individual peptides versus the response against the DMSO control.

[2] = system: PBMC from allergic donors; test: IFN-γ ELISPOT with extract-stimulated short-term lines; format: cell-based, human; settings: positive donor/peptide response
Protocol: as §1, §2

[3] = system: PBMC from allergic donors; test: IL-5 ELISPOT with extract-stimulated short-term lines; format: cell-based, human; settings: positive donor/peptide response
Protocol: as §1, §2

[4] = target: DRB4*0101 (Homo sapiens, UniProt P01903+P13762, G164S); test: biochemical

Row | Compound | Response (SFC/10^6) Total ([1]; each table line is one donor) | Response (SFC/10^6) IFNg ([2]; each table line is one donor) [SFC/10^6] | Response (SFC/10^6) IL-5 ([3]; each table line is one donor) | Response (SFC/10^6) Total ([1]; one donor per table line) | Response (SFC/10^6) IFNg ([2]; one donor per table line) [SFC/10^6] | Response (SFC/10^6) IL-5 ([3]; one donor per table line) | IC50 [4] [nM]
1 | 3324.1168 (NAGFKAAVAAAAVVP) | 1723 SFC/10^6 and 977 SFC/10^6 and 248 SFC/10^6 | 850 | 873 SFC/10^6 and 977 SFC/10^6 and 248 SFC/10^6 | – | – | – | –
2 | 3324.1592 (LGRAWFEAARVVFSY) | 1550 SFC/10^6 | 120 | 1430 SFC/10^6 | – | – | – | –
3 | CC[C@H](C)[C@H](NC(=O)[C@H](CC(C)C)NC(=O)[C@H](CC(N)=O)NC(=O)[C@H](CC(=O)O)NC(=O)[C@H](CO)NC(=O)[C@H](CC(=O)O)NC(=O)[C@H](CC(C)C)NC(=O)[C@@H](NC(=O)[C@H](Cc1ccccc1)NC(=O)[C@H](C)NC(=O)[C@@H](N)CCCCN)C(C)C)C(=O)N1CCC[C@H]1C(=O)N[C@@H](CCCCN)C(=O)N[C@H](C(=O)N[C@H](C(=O)O)C(C)C)C(C)C [3324.1588] | – | – | – | 123 SFC/10^6 and 1147 SFC/10^6 and 57 SFC/10^6 | 200 | 123 SFC/10^6 and 947 SFC/10^6 and 57 SFC/10^6 | –
4 | CC(C)C[C@H](NC(=O)[C@H](Cc1ccc(O)cc1)NC(=O)[C@H](C)NC(=O)[C@H](CCC(=O)O)NC(=O)[C@@H](NC(=O)[C@H](C)NC(=O)[C@H](CCCCN)NC(=O)[C@H](Cc1ccccc1)NC(=O)[C@@H](NC(=O)[C@H](CCC(=O)O)NC(=O)[C@H](CO)NC(=O)[C@H](C)N)C(C)C)C(C)C)C(=O)N[C@H](C(=O)N[C@@H](C)C(=O)N[C@@H](Cc1c[nH]cn1)C(=O)O)C(C)C [3324.1584] | – | – | – | 207 SFC/10^6 and 1033 SFC/10^6 and 97 SFC/10^6 | 143 | 207 SFC/10^6 and 890 SFC/10^6 and 97 SFC/10^6 | –
5 | CC(C)C[C@H](NC(=O)CNC(=O)[C@H](C)NC(=O)[C@H](C)NC(=O)[C@H](C)N)C(=O)N[C@@H](C)C(=O)N[C@@H](C)C(=O)N[C@@H](C)C(=O)N[C@@H](C)C(=O)N1CCC[C@H]1C(=O)N[C@@H](CC(C)C)C(=O)N[C@@H](CCC(=O)O)C(=O)N[C@@H](CO)C(=O)N[C@@H](CCCNC(=N)N)C(=O)N[C@@H](CCC(N)=O)C(=O)O [3324.0017] | – | – | – | – | – | – | 28
6 | CC[C@H](C)[C@H](N)C(=O)N[C@@H](Cc1ccccc1)C(=O)N[C@@H](CO)C(=O)N[C@@H](CCC(N)=O)C(=O)N[C@@H](CC(N)=O)C(=O)N[C@@H](CCSC)C(=O)N[C@@H](CC(N)=O)C(=O)N[C@H](C(=O)N[C@@H](CCCCN)C(=O)N[C@@H](CC(C)C)C(=O)N[C@@H](CCC(N)=O)C(=O)N[C@@H](CCSC)C(=O)N1CCC[C@H]1C(=O)N[C@@H](CC(C)C)C(=O)N[C@@H](Cc1ccc(O)cc1)C(=O)O)[C@@H](C)CC [3324.0607] | – | – | – | 2607 SFC/10^6 and 70 SFC/10^6 | 70 | 2607 SFC/10^6 | –
7 | CC[C@H](C)[C@H](NC(=O)[C@H](CCCCN)NC(=O)[C@H](CCC(=O)O)NC(=O)[C@@H](NC(=O)[C@@H](N)CC(C)C)[C@@H](C)CC)C(=O)N[C@@H](CC(N)=O)C(=O)N[C@@H](C)C(=O)NCC(=O)N[C@@H](Cc1ccccc1)C(=O)N[C@@H](CCCCN)C(=O)N[C@@H](C)C(=O)N[C@@H](C)C(=O)N[C@H](C(=O)N[C@@H](C)C(=O)N[C@@H](C)C(=O)O)C(C)C [3324.1175] | 1860 SFC/10^6 and 1202 SFC/10^6 and 263 SFC/10^6 | 960 | 900 SFC/10^6 and 1202 SFC/10^6 and 263 SFC/10^6 | – | – | – | –
8 | CC[C@H](C)[C@H](NC(=O)[C@H](CC(N)=O)NC(=O)[C@H](CC(C)C)NC(=O)[C@@H](NC(=O)[C@H](CC(C)C)NC(=O)[C@@H](NC(=O)[C@H](CCCCN)NC(=O)[C@H](C)NC(=O)[C@H](CC(=O)O)NC(=O)[C@@H](N)CO)[C@@H](C)O)C(C)C)C(=O)N[C@@H](CCCCN)C(=O)N[C@@H](Cc1ccc(O)cc1)C(=O)N[C@H](C(=O)N[C@@H](CCCNC(=N)N)C(=O)N1CCC[C@H]1C(=O)O)[C@@H](C)O [3324.1142] | 227 SFC/10^6 and 147 SFC/10^6 and 1697 SFC/10^6 | 150 | 227 SFC/10^6 and 147 SFC/10^6 and 1547 SFC/10^6 | – | – | – | –
9 | CC[C@H](C)[C@H](N)C(=O)N[C@@H](C)C(=O)N[C@@H](Cc1ccccc1)C(=O)N[C@@H](Cc1ccccc1)C(=O)N[C@@H](CCCNC(=N)N)C(=O)N[C@@H](CCCCN)C(=O)N[C@@H](CCC(=O)O)C(=O)N1CCC[C@H]1C(=O)N[C@@H](CC(C)C)C(=O)N[C@@H](CCCCN)C(=O)N[C@@H](CCC(=O)O)C(=O)N[C@@H](CS)C(=O)NCC(=O)NCC(=O)N[C@H](C(=O)O)[C@@H](C)CC [3337.0029] | – | – | – | 257 SFC/10^6 | 77 | 180 SFC/10^6 | –
